According to article PMC4515242, “ESR and X-ray Structure Investigations on the Binding and Mechanism of Inhibition of the Native State of Myeloperoxidase with Low Molecular Weight Fragments” (Applied Magnetic Resonance, 2015):
pIC50: −log10 of the molar value.

Tests used:
[1] = biological target: T1, hMPO (Homo sapiens, UniProt P05164); assay: Alpha screen assay: inhibition of MPO-initiated nitration of the Apo-A1 peptide ([…]); format: biochemical; settings: MPO 11.8 nM, pH 7.4, 45 min RT
T1 construct: purchased Biodesign A31804H
T1 sequence (P05164 49-745): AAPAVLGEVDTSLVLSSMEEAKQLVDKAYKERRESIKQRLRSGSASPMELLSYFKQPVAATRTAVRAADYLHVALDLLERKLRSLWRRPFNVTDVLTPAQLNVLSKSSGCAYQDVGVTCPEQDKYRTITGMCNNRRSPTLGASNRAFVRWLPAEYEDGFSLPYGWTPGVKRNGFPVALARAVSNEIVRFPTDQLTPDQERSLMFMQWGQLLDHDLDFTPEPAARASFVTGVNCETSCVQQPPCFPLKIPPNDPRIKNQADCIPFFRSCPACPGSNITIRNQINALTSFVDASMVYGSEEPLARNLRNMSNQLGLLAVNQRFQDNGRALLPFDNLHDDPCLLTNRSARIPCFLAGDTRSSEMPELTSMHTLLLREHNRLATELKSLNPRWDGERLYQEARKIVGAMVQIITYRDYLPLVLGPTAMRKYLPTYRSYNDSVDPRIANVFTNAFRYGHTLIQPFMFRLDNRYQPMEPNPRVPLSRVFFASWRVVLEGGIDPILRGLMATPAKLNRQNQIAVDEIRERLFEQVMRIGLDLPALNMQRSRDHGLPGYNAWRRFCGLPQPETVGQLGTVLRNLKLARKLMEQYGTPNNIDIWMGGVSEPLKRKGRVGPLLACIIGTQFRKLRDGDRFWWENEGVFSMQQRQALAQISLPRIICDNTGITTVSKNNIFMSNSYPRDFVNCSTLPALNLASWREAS
Description: In a typical experiment, MPO (11.8 nM final concentration) in 20 mM phosphate buffer pH 7.4, 10 % glycerol and 0.005 % gelatin (PB) is added to each well of a multi-well plate containing 20 μl PB ± compound (final concentration of DMSO = 0.9 %). The reaction is started by the addition of 20 μl PB containing 1.5 μM ApoAI peptide substrate, 300 μM diethylenetriaminepentaacetic acid (DTPA), 300 μM sodium nitrite, and 30 μM H2O2. The total reaction volume is 60 μl. The plates are incubated with agitation for 45 min at RT. The reaction is terminated with the addition of 20 μl of a stop solution containing 11.2 nM rabbit anti-nitrotyrosine antibody (final conc. of 2.8 nM), 100 μg/ml streptavidin donor beads, and 100 μg/ml protein A acceptor beads (final concentration of […]), FBS (1.6 % final concentration) in Superblock buffer. The plates are sealed, incubated in the dark for 1 h, and read on a Packard Fusion alpha plate reader.
Through a chloride independent pathway, MPO catalyzes the one electron oxidation of nitrite ions to nitrogen dioxide radicals which then […] protein amino acids like Tyrosine. We used the Apo-A1 peptide substrate ([…]) to follow the nitration of the Tyrosine (indicated by Y in the scheme below): MPO+H2O2→Compound INO2-+Compound I→NO2·+Compound II [drawing 1] Our initial experiments focused on identifying inhibitors that bind to the heme to inhibit the above catalytic action. A representative set of inhibitors is collected in Fig. 1a (strong binders, vide infra) and b (non binders, vide infra).

[2] = ABTS radical cation decolorization assay to measure the antioxidant capacity; settings: % inhibition at 20 uM single dose, read at 734 nm after 30 min
Description: The assay was modeled after the published procedure. Briefly, ABTS radical cation was prepared by adding 100 μl of 70 mM K2S2O8 to 10 ml ABTS, followed by vortexing and incubating at 37 °C water bath for 2 h. […] Trolox standards are dissolved in water. The reaction is started by adding the ABTS radical cation solution to the MPO inhibitors or Trolox (final concentration 20 μM). The plate is gently shaken for 1 min and then set on a bench top at room temperature for 30 min.

[3] = biological target: T1, hMPO; assay: Reversible binding assay (filtration and ESR after washing); settings: bound complex washed with buffer, then ESR at 4 K
Description: We performed the following two assays for independently confirming the reversibility of binding. In the filtration method, hMPO stock (1.5 mg/ml) is diluted to 5 μg/ml with 20 mM phosphate buffer pH 7.4, 10 % glycerol (no gelatin). 120 μl of this solution is mixed with an equal volume of the compounds at a concentration of 30 μM (final concentration […]), followed by mixing in the plate and incubation for 15 min. at room temperature. 120 μl aliquot of this solution is transferred into separate YM30 Micron filter units and centrifuged 6 min at 9000 rpm, followed by the addition of 300 μl of the buffer and further centrifugation for 12 min. at 9000 rpm. Wash and centrifuge cycles are repeated 2 more times with 300 μl buffer, each followed by 12 min. centrifugation steps. The protein left on the membrane is mixed with the PB buffer to a final volume of 120 μl and subjected to Alpha screen method as described before to probe the nitration of Apo A1 peptide substrate which is taken as a confirmation of the restoration of the catalytic activity of the protein.
In the ESR protocol, the methodology of Hori et al. was applied with some modifications.The protocol followed is similar to the binding assay except that a higher concentration of hMPO (9.2 μM final) is used. This is necessary as multiple washings followed by dilutions lead to considerable loss of the enzyme due to its retention on the membrane. After 5 min of incubation in the eppendorf at room temperature, the contents were transferred to an Amicon Ultra-4 tube (5 ml capacity) and filled with 4 ml of 0.1 M sodium acetate buffer (containing 50 mM NaCl) pH 6.0. Using spin conditions of 4000×g in a swinging bucket rotor at 20 °C, the samples are washed repeatedly (2×) followed with a final wash containing 1 ml of the sodium acetate buffer (chloride free) + 25 % n-propanol and then concentrated. The concentrated solution ca. 300 μl is transferred to ESR quartz tubes and measured at 4 K. A higher concentration of MPO in these reversible binding assays enabled a good ESR signal over noise from the washed (3X) sample.

For `O=C(O)c1nn(-c2ccccc2)cc1O` [LSN17948], the pIC50 [1] was 6.28, the “% Anti oxidant potential” value [2] was 42.1% and the “reversibility of the binding” value [3] was “Reversible in its action”.

In the case of `O=C(O)c1n[nH]c(-c2ccccc2)c1O` [LSN87637], the pIC50 [1] was 6.17, the “% Anti oxidant potential” value [2] was 65.9% and the “reversibility of the binding” value [3] was “Reversible in its action”.

In the case of `O=C(O)c1nn(-c2cccc3ccccc23)cc1O` [LSN2944556], the pIC50 [1] was 6.17, the “% Anti oxidant potential” value [2] was 67.6% and the “reversibility of the binding” value [3] was “Reversible in its action”.
